Literature values in US20220241364A1, “Composition for Lowering Blood Glucose Level, Reducing Blood Hemoglobin A1c Content, or Increasing Blood HDL-Cholesterol Content” (House Wellness Foods Corporation, priority 2019, published 2022).

Settings: in vivo

## CC(C)=CC(=O)C[C@H](C)c1ccc(C)cc1 [ar turmerone]
  elevation of blood sugar level: effect of inhibiting the elevation
